Measured values from patent US20230129258A1, “HETEROTANDEM BICYCLIC PEPTIDE COMPLEXES” (BicycleTx Limited, priority 2019, published 2023).
Read-outs that look alike come from different tables or passages of the source. Starred links: 1 amine or outer side, 2 acyl side, 3 side chain; linkers in the order of their positions; H or OH if unused. Positions of bridges follow the written chain, without caps; N, C: chain ends. Non-standard residues stand in square brackets, D forms with d. Chains are numbered I, II in the order given. ξ: configuration not given here. X1 = O=C(CCOCCOCCOCCN(CCOCCOCCOCCn1cc(CCC(=O)[*:2])nn1)CCOCCOCCOCCn1cc(CCC(=O)[*:3])nn1)[*:1]; X3 = O=C(CCc1cn(CCOCCOCCOCCN(CCOCCOCCOCCC(=O)[*:3])CCOCCOCCOCCn2cc(CCC(=O)[*:2])nn2)nn1)[*:1]; TATA = O=C(CC[*:1])N1CN(C(=O)CC[*:2])CN(C(=O)CC[*:3])C1; ξDip = NC(C(=O)O)C(c1ccccc1)c1ccccc1; Hyp = O=C(O)[C@@H]1C[C@@H](O)CN1; hArg = N=C(N)NCCCC[C@H](N)C(=O)O; tBuAla = CC(C)(C)C[C@H](N)C(=O)O; Cba = N[C@@H](CC1CCC1)C(=O)O; Nle = CCCC[C@H](N)C(=O)O; ξP = O=C(O)C1CCCN1

How the values were obtained:
[1] = Pharmacokinetics in SD rats; type: in vivo; conditions: male, SD, rat, plasma, IV Inf (15 minutes); for half-life: iv, read-out: T1/2 (converted); for clearance: read-out: Clp; for Vd: read-out: Vdss
Protocol: Male SD Rats were dosed with each heterotandem Bicycle peptide complex formulated in 25 mM Histidine HCl, 10% sucrose pH 7 by IV bolus or IV infusion (15 minutes). Serial bleeding (about 80 μL blood/time point) was performed via submandibular or saphenous vein at each time point. All blood samples were immediately transferred into prechilled microcentrifuge tubes containing 2 μL K2-EDTA (0.5M) as anti-coagulant and placed on wet ice. Blood samples were immediately processed for plasma by centrifugation at approximately 4° C., 3000 g. The precipitant including internal standard was immediately added into the plasma, mixed well and centrifuged at 12,000 rpm, 4° C. for 10 minutes. The supernatant was transferred into pre-labeled polypropylene microcentrifuge tubes, and then quick-frozen over dry ice. The samples were stored at […] or below as needed until analysis. 7.5 μL of the supernatant samples were directly injected for LC-MS/MS analysis using an Orbitrap Q Exactive in positive ion mode to determine the concentrations of analyte. Plasma concentration versus time data were analyzed by non-compartmental approaches using the Phoenix WinNonlin 6.3 software program. C0, CI, Vdss, T½, AUC(0-last), AUC(0-inf), MRT(0-last), MRT(0-inf) and graphs of plasma concentration versus time profile were reported.

MC38 tumors = experiment: Anti-tumor activity of EphA2/CD137 complexes in syngeneic MC38 tumor model; type: in vivo, C57BL/6J-hCD137 mice; conditions: 5 mg/kg IV BIW, 6 doses; day 28
Protocol: 6-8 weeks old C57BL/6J-hCD137 female mice were inoculated in the flank with 1×10^6 syngeneic MC38 cells. When tumors reached 76 mm^3 size on average, mice were randomized to receive vehicle or BCY12491 (intraperitoneal administration). BCY12491 was administered (n=6 mice/treatment cohort) at either 5 mg/kg or 15 mg/kg either daily (QD) or every three days (Q3D). QD dosed mice received 22 doses of BCY12491 and Q3D dosed mice received 8 doses of BCY12491. Tumor growth was monitored by caliper measurements until day 73 after treatment initiation. The results of this experiment may be seen in FIG. 9 where it can be seen that the effect of BCY12491 on tumor growth becomes apparent in the first two weeks of the dosing period reducing the tumor growth and causing reduction of volumes of many of the treated tumors. By day 41, 15 out of 24 BCY12491 treated animals had completely responded to the treatment and had no palpable tumors left.
6-8 week old female C57BL/6J-hCD137 mice [B-hTNFRSF9(CD137) mice; Biocytogen] were implanted subcutaneously with 1×10^6 MC38 cells. Mice were randomized into treatment groups (n=6/cohort) when average tumor volumes reached around 76 mm^3 and were treated with daily doses of vehicle (25 mM histidine, 10% sucrose, pH7). BCY12491 treatment was conducted at two different dose levels (5 and 15 mg/kg) and two different dosing schedules (QD: daily; Q3D: every three days). Animals received either 22 QD doses or 8 Q3D doses intraperitoneally (ip). Tumor growth was monitored until tumor reached volumes over 2000 mm^3 or until 73 days after treatment initiation. After Day 73, 5 complete responder animals were re-challenged with MC38 tumor cell implantation alongside with 5 naïve C57BL/6J-hCD137 mice. Tumor growth was monitored for 20 days.
(§1) 6-8 week old female C57BL/6J-hCD137 mice [B-hTNFRSF9(CD137) mice; Biocytogen] were implanted subcutaneously with 1×10^6 MC38 cells. Mice were randomized into treatment groups (n=6/cohort) when average tumor volumes reached around 92 mm^3 and were treated intravenously with Q3D doses of vehicle (25 mM histidine, 10% sucrose, pH7), 15 mg/kg of BCY12730, BCY12723 or BCY12491 (7 Q3D doses). Tumor growth was monitored for 28 days or until tumors exceeded 2000 mm^3.
as §1, with “76” for “92”, “twice weekly (BIW)” for “Q3D”, “5” for “15”, “BCY13048, BCY13050,” for “BCY12730, BCY12723”, “(6 BIW” for “(7 Q3D”

human PBMCs = experiment: Human PBMC co-culture cytokine secretion assay with EphA2-expressing tumor cells (MC38, HT-1080, HT29); type: cell-based; conditions: human PBMC-MC38 co-culture
Protocol: […] MC38 were cultured in Dulbecco's Modified Eagle Medium supplemented with 10% heat inactivated Fetal Bovine Serum (FBS), 1× Penicillin/Streptomycin, 10 mM HEPES, and 2 mM L-Glutamine (referred to as R10 medium). Frozen PBMCs from healthy human donors were thawed and washed once in room temperature PBS with benzonase, and then resuspended in RPMI supplemented with 10% heat inactivated Fetal Bovine Serum (FBS), 1× Penicillin/Streptomycin, 10 mM HEPES, and 2 mM L-Glutamine (herein referred to as R10 medium). 100 μl of PBMCs (1,000,000 PBMCs/ml) and 100 μl of tumor cells (100,000 tumor cells/ml) (Effector:Target cell ratio (E:T) 10:1) were plated in each well of a 96 well flat bottom plate for the co-culture assay. 100 ng/ml of soluble anti-CD3 mAb (clone OKT3) was added to the culture on day 0 to stimulate human PBMCs. Test, control compounds, or vehicle controls were diluted in R10 media and 50 μL was added to respective wells to bring the final volume per well to 250 μL. Plates were covered with a breathable film and incubated in a humidified chamber at 37° C. with 5% CO2 for two days. […] Briefly, the standards and samples were added to a black 96 well plate. Microparticle cocktail (provided in Luminex kit, R&D Systems) was added and shaken for 2 hours at room temperature. The plate was washed 3 times using a magnetic holder. Biotin cocktail was then added to the plate and shaken for 1 hour at RT. The plate was washed 3 times using a magnetic holder. Streptavidin cocktail was added to the plate and shaken for 30 minutes at RT. The plates were washed 3 times using a magnetic holder, resuspended in 100 μL of wash buffer, shaken for 2 minutes at RT, and read using the Luminex 2000. Raw data were analyzed using built-in Luminex software to generate standard curves and interpolate protein concentrations, all other data analyses and graphing were performed using Excel and Prism software. Data represents one study with three independent donor PBMCs tested in experimental duplicates.
Similarly, PBMCs from healthy donors were co-cultured with EphA2 expressing cancer cells (MC38 and HT-1080) at a ratio of 5:1 in presence of anti-CD3 and BCY13272. […]

CD137 = CD137 (Homo sapiens, UniProt Q07011); experiment: CD137 reporter assay (Promega, Jurkat cells) in co-culture with EphA2-expressing tumor cells (A549, PC3, HT29); type: cell-based; parameters: host or cells: Jurkat reporter cells; conditions: for Emax (fold induction over background): CD137 reporter coculture assay with PC3 tumor cells; for EC50: EC50, CD137 reporter coculture assay with PC3 tumor cells
CD137, sequence (Q07011 24-255): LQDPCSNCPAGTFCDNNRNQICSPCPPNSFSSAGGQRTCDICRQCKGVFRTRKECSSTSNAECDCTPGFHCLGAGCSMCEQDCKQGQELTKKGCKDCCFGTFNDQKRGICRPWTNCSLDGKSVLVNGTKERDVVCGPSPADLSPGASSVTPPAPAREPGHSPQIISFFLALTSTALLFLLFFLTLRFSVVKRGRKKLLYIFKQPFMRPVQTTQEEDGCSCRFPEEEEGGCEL
Summary of the method: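 Readout is Bio-Glo luminescence after 6 h, 37° C co-culture of CD137 reporter Jurkat cells, target tumor cells (EphA2: A549, PC3, HT29; PD-L1: RKO) and titrated test articles in 1% FBS RPMI. EC50 (nM) and maximal induction come from fold change over untreated co-culture.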

MC38 tumor tissue = experiment: Immune response in MC38 tumors (nCounter transcriptional analysis, CD8 IHC); type: in vivo, C57BL/6J-hCD137 mice; conditions: Q3D x3, peptides 15 mg/kg IV, anti-CD137 2 mg/kg ip
Protocol: 6-8 week old female C57BL/6J-hCD137 mice [B-hTNFRSF9(CD137) mice; Biocytogen] were implanted subcutaneously with 1×10^6 MC38 cells. Mice were randomized into treatment groups when average tumor volumes reached around 240 mm^3 and were treated (n=6/treatment cohort) with vehicle (25 mM histidine, 10% sucrose, pH7) intravenously (IV), 15 mg/kg BCY12491 (EphA2: CD137 1:2 Heterotandem Complex) IV, 15 mg/kg BCY13626 (non-binding control for EphA2) IV or 2 mg/kg Anti-CD137 (urelumab analogue) intraperitoneally. All treatments were given Q3D for three doses and tumor tissues were harvested 1 hour after the last dose. Part of the tumor tissue was used for RNA isolation for transcriptional analysis and a part of the tumor tissue was used for formalin fixed paraffin embedded (FFPE) sample preparation for immunohistochemical (INC) analysis. RNA was isolated from tumor tissues using RNAeasy kit [Qiagen] and transcriptional analysis was performed using nCounter Mouse PanCancer IO 360 panel (Nanostring) from 100 ng RNA/tumor. Data was analysed using the nSolver Analysis Software (Nanostring). CD8+ tumor infiltrating cells were stained in FFPE tissue sections using anti-mouse CD8 antibody (Abcam, #ab217344) and Ventana Discovery OmniMap anti Rabbit-HRP Kit (Ventana #760 4310).

Row | Substance | half-life [1] [h] | clearance [1] [mL/min/kg] | Vd [1] [L/kg] | complete responses (MC38 tumors) | EC50 (human PBMCs; Donor 1, 72 h incubation, read-out: Donor 1 EC50 of IFNγ secretion) [pM] | EC50 (human PBMCs; Donor 2, 72 h incubation, read-out: Donor 2 EC50 of IFNγ secretion) [pM] | Emax (fold induction over background) (CD137) | EC50 (CD137) [pM] | EC50 (human PBMCs; Donor 1, 48 h incubation, read-out: Donor 1 EC50 of IFNγ secretion) [pM] | EC50 (human PBMCs; Donor 2, 48 h incubation, read-out: Donor 2 EC50 of IFNγ secretion) [pM] | CD8+ cell infiltration in tumor (IHC) (MC38 tumor tissue) | T cell score in tumor tissue (MC38 tumor tissue; vs vehicle) | cytotoxic cell score in tumor tissue (MC38 tumor tissue; vs vehicle)
1 | I: A[hArg]DC[Hyp][Cba]VN[ξP]LCLHP[dD]W[hArg]C-NH2 / II: Ac-C[tBuAla]PE[dK]PYCFADPY[Nle]CA-NH2 / III: Ac-C[tBuAla]PE[dK]PYCFADPY[Nle]CA-NH2 (linker I:4-I:11-I:18, II:1-II:8-II:15, III:1-III:8-III:15 via TATA; linker I:N-II:5-III:5 via X1) [BCY13050] | 3.3 | 11 | 1.4 | 3 out of 6 | 380 | 190 | 42.46 | 90 | – | – | – | – | –
2 | I: Ac-C[tBuAla]PE[dK]PYCFADPY[Nle]CA-NH2 / II: Ac-C[tBuAla]PE[dK]PYCFADPY[Nle]CA-NH2 / III: C[Hyp]LVNPLCL[ξDip]P[dD]WTC-NH2 (linker I:1-I:8-I:15, II:1-II:8-II:15, III:1-III:8-III:15 via TATA; linker I:5-II:5-III:N via X3) [BCY13048] | 3.8 | 11 | 1.2 | 5 out of 6 | – | – | 48.35 | 90 | 300 | 240 | – | – | –
3 | anti-CD137 antibody: Anti-CD137 (urelumab analogue) | – | – | – | – | – | – | – | – | – | – | Some increase in CD8+ cell infiltration | increased significantly | increased significantly
